What all share (assay): biochemical
Experiment [1] addresses Cyclin-dependent kinase 7/ cyclin H (Homo sapiens, UniProt P50613).
Description: Inhibition of human recombinant His6 tagged CDK7/CyclinH/MAT1 expressed in Sf21 insect cells after 40 mins by scintillation counting analysis
The target of another experiment is CDK9/cyclin T1 (Homo sapiens, UniProt P50750).
Experiment [2] has as its target Cyclin-dependent kinase 2/cyclin A (Homo sapiens, UniProt P24941).
Description: Inhibition of human recombinant His6 tagged CDK2/Cyclin A expressed in Sf21 insect cells after 40 mins by scintillation counting analysis
Experiment [3] has as its target Cyclin-dependent kinase 1/cyclin B1 (Homo sapiens, UniProt P06493).
Description: Inhibition of human recombinant His6 tagged CDK1/Cyclin B expressed in Sf21 insect cells after 40 mins by scintillation counting analysis

The structures appear in SMILES notation.

Chain of CDK9/cyclin T1 (O60563 whole entry): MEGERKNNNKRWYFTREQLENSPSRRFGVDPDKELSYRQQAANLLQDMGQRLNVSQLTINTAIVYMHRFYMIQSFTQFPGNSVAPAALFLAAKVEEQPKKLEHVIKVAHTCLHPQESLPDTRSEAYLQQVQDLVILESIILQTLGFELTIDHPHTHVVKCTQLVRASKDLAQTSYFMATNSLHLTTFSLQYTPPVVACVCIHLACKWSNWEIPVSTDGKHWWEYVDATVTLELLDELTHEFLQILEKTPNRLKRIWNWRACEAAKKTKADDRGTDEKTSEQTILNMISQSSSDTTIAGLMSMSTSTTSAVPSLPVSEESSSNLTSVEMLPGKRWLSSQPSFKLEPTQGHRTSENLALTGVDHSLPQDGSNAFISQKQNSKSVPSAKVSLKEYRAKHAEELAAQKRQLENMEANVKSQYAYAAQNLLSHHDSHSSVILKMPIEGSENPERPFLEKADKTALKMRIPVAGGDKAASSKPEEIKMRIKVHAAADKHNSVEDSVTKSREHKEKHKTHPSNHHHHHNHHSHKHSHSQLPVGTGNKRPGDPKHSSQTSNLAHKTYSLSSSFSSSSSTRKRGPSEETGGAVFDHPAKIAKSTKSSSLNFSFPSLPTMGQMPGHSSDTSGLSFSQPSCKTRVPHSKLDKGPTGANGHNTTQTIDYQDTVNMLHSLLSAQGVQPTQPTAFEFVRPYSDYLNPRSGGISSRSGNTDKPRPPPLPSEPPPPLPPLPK
Chain of CDK9/cyclin T1 (P50750 whole entry): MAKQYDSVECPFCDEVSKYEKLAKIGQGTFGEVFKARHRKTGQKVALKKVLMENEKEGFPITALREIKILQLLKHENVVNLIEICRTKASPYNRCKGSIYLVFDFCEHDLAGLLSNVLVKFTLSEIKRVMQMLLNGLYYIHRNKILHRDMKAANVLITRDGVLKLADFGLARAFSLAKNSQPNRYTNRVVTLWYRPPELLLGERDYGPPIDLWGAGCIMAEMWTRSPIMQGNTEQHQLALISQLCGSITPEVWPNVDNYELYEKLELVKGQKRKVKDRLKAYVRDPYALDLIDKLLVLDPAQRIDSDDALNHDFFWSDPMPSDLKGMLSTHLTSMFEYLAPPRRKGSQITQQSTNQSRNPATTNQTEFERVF
Chain of Cyclin-dependent kinase 1/cyclin B1 (P06493 whole entry): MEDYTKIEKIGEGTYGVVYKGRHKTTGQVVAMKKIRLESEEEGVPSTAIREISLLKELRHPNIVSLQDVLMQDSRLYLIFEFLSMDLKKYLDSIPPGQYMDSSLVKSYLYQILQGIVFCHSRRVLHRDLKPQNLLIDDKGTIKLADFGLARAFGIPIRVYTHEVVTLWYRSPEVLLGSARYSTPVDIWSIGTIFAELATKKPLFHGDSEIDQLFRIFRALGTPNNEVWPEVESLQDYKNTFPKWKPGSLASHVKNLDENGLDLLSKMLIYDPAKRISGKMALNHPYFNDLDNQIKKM
Chain of Cyclin-dependent kinase 1/cyclin B1 (P14635 whole entry, further chain): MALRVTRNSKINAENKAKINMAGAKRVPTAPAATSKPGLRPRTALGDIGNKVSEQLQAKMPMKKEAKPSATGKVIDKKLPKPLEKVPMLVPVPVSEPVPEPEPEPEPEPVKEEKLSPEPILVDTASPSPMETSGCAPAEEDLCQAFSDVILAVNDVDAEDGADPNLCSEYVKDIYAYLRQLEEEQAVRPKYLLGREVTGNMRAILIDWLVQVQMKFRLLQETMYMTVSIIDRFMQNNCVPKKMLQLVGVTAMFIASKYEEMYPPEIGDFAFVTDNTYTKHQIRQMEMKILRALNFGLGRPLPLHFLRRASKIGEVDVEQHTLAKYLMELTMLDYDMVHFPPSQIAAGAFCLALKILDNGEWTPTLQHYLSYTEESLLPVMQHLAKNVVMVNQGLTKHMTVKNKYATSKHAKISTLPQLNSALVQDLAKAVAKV
Chain of Cyclin-dependent kinase 7/ cyclin H (P51946 whole entry): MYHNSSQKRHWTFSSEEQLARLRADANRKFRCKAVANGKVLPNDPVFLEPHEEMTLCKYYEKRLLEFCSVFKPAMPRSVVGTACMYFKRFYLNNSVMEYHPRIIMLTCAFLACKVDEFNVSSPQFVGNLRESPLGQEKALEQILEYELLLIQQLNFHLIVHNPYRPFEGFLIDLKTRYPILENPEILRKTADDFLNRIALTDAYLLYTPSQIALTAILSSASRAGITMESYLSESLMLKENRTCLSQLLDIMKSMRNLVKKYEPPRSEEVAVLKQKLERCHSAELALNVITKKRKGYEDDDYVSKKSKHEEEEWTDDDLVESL
Chain of Cyclin-dependent kinase 7/ cyclin H (P50613 whole entry): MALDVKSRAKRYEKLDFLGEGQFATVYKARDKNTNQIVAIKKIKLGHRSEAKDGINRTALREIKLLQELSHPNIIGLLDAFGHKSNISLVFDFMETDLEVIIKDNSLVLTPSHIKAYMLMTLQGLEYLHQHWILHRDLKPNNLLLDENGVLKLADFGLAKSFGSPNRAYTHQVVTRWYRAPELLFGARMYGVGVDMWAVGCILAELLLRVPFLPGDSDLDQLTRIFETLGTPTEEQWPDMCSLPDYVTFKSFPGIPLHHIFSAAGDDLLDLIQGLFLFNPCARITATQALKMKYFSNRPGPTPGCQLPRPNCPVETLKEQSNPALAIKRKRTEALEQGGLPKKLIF
Description for CDK9/cyclin T1: Inhibition of human recombinant His6 tagged CDK9/CyclinT1 expressed in Sf21 insect cells after 40 mins by scintillation counting analysis

For orientation: Ki means a measure of affinity in units of concentration, obtained from inhibition or displacement. Higher therefore signals a looser hold on the target. Turning to `CNc1nc(C)c(-c2nc(Nc3cccc(S(N)(=O)=O)c3)ncc2Cl)s1`, the inhibition constant (Ki) was found to be 685 nM in experiment [1] and 11 nM on CDK9/cyclin T1.

For `CNc1nc(CC(F)(F)F)c(-c2ccnc(Nc3cccc(O)c3)n2)s1`, the Ki in experiment [1] stood at 3470 nM; in experiment [2], 282 nM; in experiment [3], 556 nM; on CDK9/cyclin T1, 245 nM.

`CNc1nc(C)c(-c2nc(Nc3cccc(N4CCCNCC4)c3)ncc2F)s1`: the inhibitory constant (Ki) in experiment [1] amounted to 111 nM; in experiment [2], 85 nM; in experiment [3] it was 47 nM; at CDK9/cyclin T1 it was 5 nM.

As to `CCc1cnc(Nc2cccc(S(N)(=O)=O)c2)nc1-c1sc(NC)nc1C`, the Ki in experiment [1] is 1280 nM; in experiment [2], 845 nM; in experiment [3], 788 nM; at CDK9/cyclin T1, 98 nM.

Turning to `CNc1nc(C2CC2)c(-c2ccnc(Nc3ccc(S(N)(=O)=O)cc3)n2)s1`, the Ki in experiment [1] stood at 255 nM; in experiment [2] it was 13 nM; in experiment [3], 2 nM; at CDK9/cyclin T1, 8 nM.

`CNc1nc(C)c(-c2nc(Nc3cccc(S(N)(=O)=O)c3)ncc2O)s1`: the inhibition constant (Ki) (in experiment [1]; in experiment [2]; in experiment [3]; on CDK9/cyclin T1) was more than 5000 nM in each case.

In experiment [1], `CNc1ncc(-c2ccnc(Nc3ccc(S(N)(=O)=O)cc3)n2)s1` displayed a Ki of 54 nM.

As for `CNc1nc(C)c(-c2ccnc(Nc3cccc([N+](=O)[O-])c3)n2)s1`, the Ki in experiment [1] turned out to be 417 nM; in experiment [2], 3 nM; in experiment [3], 5 nM; on CDK9/cyclin T1, 2 nM.

Take `CNc1nc(C)c(-c2ccnc(Nc3cccc(S(N)(=O)=O)c3)n2)s1`: the Ki in experiment [1] was found to be 1960 nM; in experiment [2] it was 4 nM; in experiment [3] it was 6 nM; on CDK9/cyclin T1, 2 nM.

Consider `CNc1nc(C)c(-c2nc(Nc3cccc(N4CCN(C(C)=O)CC4)c3)ncc2C#N)s1`, for which the Ki in experiment [1] is 92 nM; in experiment [2], 43 nM; in experiment [3], 43 nM; at CDK9/cyclin T1, 7 nM.

Take `CNc1nc(C)c(-c2nc(Nc3cccc(N4CCCCC4)c3)ncc2C#N)s1`: the Ki in experiment [1] came to 286 nM; in experiment [2], 42 nM; in experiment [3] it was 35 nM; on CDK9/cyclin T1 it was 9 nM.

For `CNc1nc(C)c(-c2nc(Nc3cccc(S(N)(=O)=O)c3)ncc2C)s1`, the Ki worked out at 1180 nM in experiment [1], 34 nM in experiment [2] and 5 nM on CDK9/cyclin T1.

Consider `CNc1nc(C)c(-c2nc(Nc3cccc(N4CCNCC4)c3)ncc2C#N)s1`, for which the Ki in experiment [1] was 68 nM; in experiment [2], 56 nM; in experiment [3] it was 42 nM; at CDK9/cyclin T1, 5 nM.

Consider `CNc1nc(C)c(-c2nc(Nc3ccc(N4CCN(C(C)=O)CC4)cc3)ncc2C#N)s1`, for which the Ki in experiment [1] worked out at 316 nM; in experiment [2], 26 nM; in experiment [3], 45 nM; on CDK9/cyclin T1, 22 nM.

For the compound `CNc1nc(CC(F)(F)F)c(-c2ccnc(Nc3cccc(S(N)(=O)=O)c3)n2)s1`, the Ki in experiment [1] worked out at 1980 nM; in experiment [2], 226 nM; in experiment [3], 154 nM; on CDK9/cyclin T1 it was 156 nM.

Take `CNc1nc(C)c(-c2nc(Nc3ccc(N4CCNCC4)cc3)ncc2C#N)s1`: the Ki was found to be 71 nM in experiment [1], 39 nM in experiment [2], 79 nM in experiment [3] and 6 nM at CDK9/cyclin T1.

As for `CNc1nc(C)c(-c2nc(Nc3cccc(N4CCOCC4)c3)ncc2F)s1`, the inhibition constant Ki was found to be 473 nM in experiment [1], 20 nM in experiment [2], 18 nM in experiment [3] and 3 nM at CDK9/cyclin T1.

`CNc1nc(C(F)(F)F)c(-c2ccnc(Nc3ccc(S(N)(=O)=O)cc3)n2)s1`: the Ki is 64 nM in experiment [1], 1.5 nM in experiment [2], 0.5 nM in experiment [3] and 3 nM on CDK9/cyclin T1.

Turning to `CNc1nc(-c2ccccc2)c(-c2ccnc(Nc3cccc([N+](=O)[O-])c3)n2)s1`, the Ki (in experiment [1]; in experiment [3]; at CDK9/cyclin T1) was more than 5000 nM throughout.

As to `CNc1nc(C2CC2)c(-c2ccnc(Nc3cccc(N4CCCNCC4)c3)n2)s1`, the Ki came to 464 nM in experiment [1], 326 nM in experiment [2], 176 nM in experiment [3] and 66 nM on CDK9/cyclin T1.

As for `CCCc1cnc(Nc2cccc(S(N)(=O)=O)c2)nc1-c1sc(NC)nc1C`, the Ki (in experiment [2]; at CDK9/cyclin T1) was more than 5000 nM each time.

Turning to `CNc1nc(CC(F)(F)F)c(-c2ccnc(Nc3cccc([N+](=O)[O-])c3)n2)s1`, the Ki was more than 5000 nM in experiment [1], more than 5000 nM in experiment [2], more than 5000 nM in experiment [3] and 134 nM at CDK9/cyclin T1.

For `CNc1nc(C(F)(F)F)c(-c2ccnc(Nc3cccc(S(N)(=O)=O)c3)n2)s1`, the inhibitory constant (Ki) is 47 nM in experiment [1], 2 nM in experiment [2], 1.5 nM in experiment [3] and 2 nM on CDK9/cyclin T1.

For the compound `CNc1nc(C2CC2)c(-c2ccnc(Nc3cccc(S(N)(=O)=O)c3)n2)s1`, the Ki is 273 nM in experiment [1], 2 nM in experiment [2], 18 nM in experiment [3] and 16 nM at CDK9/cyclin T1.

With `CNc1ncc(-c2ccnc(Nc3cccc(S(N)(=O)=O)c3)n2)s1`, the Ki in experiment [1] came out at 40 nM; in experiment [2], 5 nM; in experiment [3] it was 4 nM; on CDK9/cyclin T1 it was 3 nM.

Regarding `CNc1nc(C)c(-c2nc(Nc3cccc(N4CCN(C(C)=O)CC4)c3)ncc2F)s1`, the Ki in experiment [1] came to 302 nM; in experiment [2], 42 nM; in experiment [3], 26 nM; on CDK9/cyclin T1, 7 nM.

`CNc1nc(C)c(-c2ccnc(Nc3cccc(N4CCCNCC4)c3)n2)s1`: the Ki in experiment [1] was determined as 433 nM; in experiment [2], 320 nM; in experiment [3], 195 nM; at CDK9/cyclin T1, 19 nM.

Consider `CNc1nc(C)c(-c2nc(Nc3cccc([N+](=O)[O-])c3)ncc2O)s1`, for which the Ki was more than 5000 nM in experiment [1], more than 5000 nM in experiment [2], 1420 nM in experiment [3] and 932 nM on CDK9/cyclin T1.

`CNc1nc(C)c(-c2nc(Nc3cccc(N4CCNCC4)c3)ncc2F)s1`: the Ki in experiment [1] worked out at 193 nM; in experiment [2], 20 nM; in experiment [3], 24 nM; at CDK9/cyclin T1 it was 4 nM.

`CNc1nc(C)c(-c2nc(Nc3cccc(N4CCNCC4)c3)ncc2Cl)s1`: the Ki came out at 155 nM in experiment [1], 45 nM in experiment [2], 88 nM in experiment [3] and 4 nM at CDK9/cyclin T1.

As for `CNc1nc(CC(F)(F)F)c(-c2ccnc(Nc3ccc(O)cc3)n2)s1`, the inhibitory constant (Ki) in experiment [1] stood at 1540 nM; in experiment [2], 347 nM; in experiment [3], 334 nM; at CDK9/cyclin T1, 278 nM.

Values taken from ChEMBL document CHEMBL2346630 (J Med Chem, 2013).
